Results taken from patent US7968551B2, “Chromenoneindoles” (Merck Patent GmbH, priority 2003, dated 2011).

Key:
cortical serotonin level = experiment: Microdialysis: effect on the cortical serotonin level in vivo; settings: rats
Description: In order to determine the effect of the substances on the cortical serotonin level in rats in vivo, a microdialysis probe with a semipermeable membrane was implanted into the brain tissue and perfused with a solution matched to the composition of cerebrospinal fluid (see in this respect, for example, Di Chiara, Trends Pharmacol. Sci. 11, 117-121, 1990). The molecules of the extracellular space, such as, for example, also of the neurotransmitter serotonin, diffuse via this membrane into the interior of the probe in accordance with their concentration gradient. From there, they are transported with the perfusion stream to a collecting vessel. The serotonin concentration in the dialysate obtained in this way is subsequently determined by means of high-sensitivity analytical methods. The fractions obtained at regular intervals (of, for example, 15-20 minutes) thus reflect the concentration changes of the transmitter in question in the brain tissue over a period of several hours. The concentration of the serotonin in the dialysate is firstly measured without any influence. The substance to be tested is then applied, and the serotonin concentrations before and after administration of the substances are compared.

[1] = Absolute bioavailability from AUC after po and iv administration; format: in vivo; settings: rat; Wistar rats, male; iv 0.2 mg/kg, po 0.5 mg/kg; plasma by LC/MS/MS
Method: The bioavailability was determined by a standard method described in many textbooks of pharmacokinetics with the aid of the AUC (area under the concentration/time curves) measured after po and iv administration. For the determination of the absolute bioavailability, the plasma concentration curve of the said substances was determined after intravenous (iv) and oral (po) administration to Wistar rats (male; N=3 animals/administration). The following experiment design was selected: • Administration method: iv and po • Dose: iv−0.2 mg/kg; po−0.5 mg/kg • Time of blood sampling for the determination of the plasma concentrations: • iv: 0.1, 0.5, 1, 2, 4, 6 and 24 h • po: 0.25, 0.5, 1, 2, 4, 6 and 24 h
The plasma concentrations were determined with the aid of LC/MS/MS.
The plasma concentrations were used to calculate the AUC (area under the concentration/time curve) in accordance with the so-called trapezium formula.
The bioavailability is obtained from the AUC in accordance with the following formula: Bioavailability [%]=100×(AUC po)/AUC iv)[…]

N#Cc1ccc2[nH]cc(CCCCN3CCN(c4ccc5oc(C(N)=O)cc5c4)CC3)c2c1 [EMD 68843, 5-{4-[4-(5-cyano-3-inolyl)butyl]-1-piperanzinyl}benzofuran-2-carboxamide, reference compound]
serotonin level in the brain (5-HT concentration in the dialysate), FIG. 1 (cortical serotonin level; 1 mg/kg i.p.): comparable increase in the concentration of serotonin in the brain to EMD 135894

N#Cc1ccc2[nH]cc(CCCCN3CCN(c4ccc5oc(=O)ccc5c4)CC3)c2c1 [EMD 135894, 3-(4-(4-(2-oxo-2H-1-benzopyran-6-yl)-1-piperazinyl)butyl)indole-5-carbonitrile, reference compound]
bioavailability [1]: 10%

N#Cc1ccc2[nH]cc(CCCCN3CCN(c4ccc5oc(=O)c(N)cc5c4)CC3)c2c1 [EMD 480246, 3-{4-[4-(3-Amino-2-oxo-2H-chromen-6-yl)piperazin-1-yl]butyl}-1H-indole-5-carbonitrile]
serotonin level in the brain (5-HT concentration in the dialysate), FIG. 2 (cortical serotonin level; 0.3 mg/kg i.p.): even higher serotonin level than EMD 391987

CCOC(=O)Nc1cc2cc(N3CCN(CCCCc4c[nH]c5ccc(C#N)cc45)CC3)ccc2oc1=O [EMD 480247, Ethyl(6-{4-[4-(5-cyano-1H-indol-3-yl)butyl]piperazin-1-yl}-2-oxo-2H-chromen-3-yl)carbamate]
bioavailability [1]: ~20% | serotonin level in the brain (5-HT concentration in the dialysate), FIG. 3 (cortical serotonin level; 0.3 or 1.0 mg/kg i.p. compared with vilazodone 1 mg/kg): clearly superior action to vilazodone
